From patent US20250049779A1, “COMBINATION OF AN A2-ADRENOCEPTOR SUBTYPE C (ALPHA-2C) ANTAGONIST WITH A NOREPINEPHRINE REUPTAKE INHIBITOR FOR THE TREATMENT OF SLEEP APNEA” (Bayer Aktiengesellschaft, priority 2021, published 2025)

System: upper airway collapsibility
Assay: pig model of obstructive sleep apnea (OSA): collapse of the upper respiratory tract induced by negative pressure in anaesthetized, spontaneously breathing pigs
Type: in vivo, German Landrace pigs
Details: for Percent pigs without collaps −150 cm H2O, %: −150 cm H2O (column head; title prints −100)
Source text: The therapeutic potential of the combination of an α2-Adrenoceptor subtype C (alpha-2C) antagonists with a noradrenaline reuptake inhibitor according to the present invention in sleep apnea can be assessed preclinically in a pig model of obstructive sleep apnea (OSA).
Using negative pressure, it is possible to induce collapse and thus obstruction of the upper respiratory tract in anaesthetized, spontaneously breathing pigs (Wirth K. J. et al., Sleep 36(5) (2013) pp. 699-708).
German Landrace pigs are used for the model. The pigs are anaesthetized and tracheotomized. Two tracheal cannulas are inserted into the trachea, one into the rostral part and the other into the caudal part of the trachea. Using a connection piece, the rostral cannula is connected to a tube to the negative pressure device and to the distal tracheal cannula. The distal tracheal cannula is additionally connected to a tube with an open end to atmosphere via a connection piece that served for free tracheal breathing, circumventing the upper airway. By appropriate opening and clamping of those tubes breathing can be switched from nasal breathing to breathing through the caudal tracheal cannula, circumventing the upper airway, and the (isolated) upper airway can be connected to the negative pressure device, causing airflow in the inspiratory direction.
At certain points in time, the collapsibility of the upper respiratory tract is tested by having the pig breathe via the caudal cannula and applying negative pressures of −50, −100 and −150 cm water head (cm H2O) to the upper respiratory tract. This causes the upper respiratory tract to collapse, which manifests itself in an interruption of the airflow and a pressure drop in the tube system. This test is conducted prior to the administration of the test substance and at certain intervals after the administration of the test substance. An appropriately effective test substance can prevent this collapse of the respiratory tract in the inspiratory phase.

[1] = intravenous bolus 20 μg/kg then infusion 12.5 μg/kg/h for four hours, time 0 min (time of administration)
[2] = intravenous bolus 20 μg/kg then infusion 12.5 μg/kg/h for four hours, time 10 min
[3] = intravenous bolus 20 μg/kg then infusion 12.5 μg/kg/h for four hours, time 30 min
[4] = intravenous bolus 20 μg/kg then infusion 12.5 μg/kg/h for four hours, time 60 min
[5] = intravenous bolus 20 μg/kg then infusion 12.5 μg/kg/h for four hours, time 120 min
[6] = intravenous bolus 20 μg/kg then infusion 12.5 μg/kg/h for four hours, time 180 min
[7] = intravenous bolus 20 μg/kg then infusion 12.5 μg/kg/h for four hours, time 240 min

C[C@@H]1CCCN(C2CCN(c3ncc(C(=O)NCc4ncc(F)cc4F)s3)CC2)C1 [N-[(3,5-difluoropyridin-2-yl)methyl]-2-[(3R)-3-methyl[1,4′-bipiperidin]-1′-yl]-1,3-thiazole-5-carboxamide]
at no time point: inhibited upper airway collapsibility at all negative pressures of −50, −100 and −150 cm head (cm H2O) in all pigs (0.01 mg/kg intraduodenal)
inhibited: upper airway collapsibility at the negative pressures of −50 and −100 cm head (cm H2O) (0.01 mg/kg intraduodenal, 120 min after administration) | upper airway collapsibility at the negative pressure of −50 cm head (cm H2O) (0.01 mg/kg intraduodenal, 150 min after administration)

CNCC[C@@H](Oc1ccccc1C)c1ccccc1 [atomoxetine]
0%: Percent pigs without collaps −50 cm H2O, % [1] | Percent pigs without collaps −50 cm H2O, % [2] | Percent pigs without collaps −50 cm H2O, % [3] | Percent pigs without collaps −50 cm H2O, % [4] | Percent pigs without collaps −50 cm H2O, % [5] | Percent pigs without collaps −50 cm H2O, % [6] | Percent pigs without collaps −50 cm H2O, % [7] | Percent pigs without collaps −100 cm H2O, % [1] | Percent pigs without collaps −100 cm H2O, % [2] | Percent pigs without collaps −100 cm H2O, % [3] | Percent pigs without collaps −100 cm H2O, % [4] | Percent pigs without collaps −100 cm H2O, % [5] | Percent pigs without collaps −100 cm H2O, % [6] | Percent pigs without collaps −100 cm H2O, % [7] | Percent pigs without collaps −150 cm H2O, % [1] | Percent pigs without collaps −150 cm H2O, % [2] | Percent pigs without collaps −150 cm H2O, % [3] | Percent pigs without collaps −150 cm H2O, % [4] | Percent pigs without collaps −150 cm H2O, % [5] | Percent pigs without collaps −150 cm H2O, % [6] | Percent pigs without collaps −150 cm H2O, % [7]
at no time: inhibited upper airway collapsibility at all negative pressures of −50, −100 and −150 cm head (cm H2O) in all pigs (intravenous bolus 20 μg/kg then infusion 12.5 μg/kg/h for four hours)
